The text below walks through data of ChEMBL document CHEMBL1268990, “Substituted pyrazoles as novel sEH antagonist: investigation of key binding interactions within the catalytic domain” (Bioorg Med Chem Lett, 2010).

This series deals with Liver microsomes. Kind of series: Metabolic stability in human liver microsomes. In kind it is ADME, Microsome. (In general: Liver microsomes are vesicles of endoplasmic reticulum, rich in cytochrome P450 enzymes.)

Molecules are shown by their SMILES.

With `O=C(Nc1ccc(-n2nc(-c3cccnc3)cc2C(F)(F)F)cn1)c1ccccc1`, the Stability was 36%. `O=C(Nc1ccc(-n2nc(-c3cccnc3)cc2C(F)(F)F)nn1)c1ccccc1` came in with a Stability of 31%.
